From patent publication US20250034264A1, “REGULATING T CELL IMMUNE RESPONSE THROUGH IGF-I RECEPTOR (IGF-1R)” (The Regents of the University of Michigan, priority 2021, published 2025) come the findings set out here.

Common to all, as to assay type: cell-based, human
Experiment [1] has as its system CD34+ fibrocytes. Nature of the experiment: MHC II, CD80, CD86, PD-L1 expression in cultured fibrocytes (RT-qPCR, flow cytometry). The source says:
Fibrocyte and T cell isolation and cultivation. Peripheral blood mononuclear cells (PBMCs) were obtained from the venous circulation of clinic patients with GD, TAO or from healthy donors after obtaining informed consent. PBMCs were also obtained from Red Cross donor plasmapheresis filters. They were isolated by Ficoll-Histopaque (Sigma-Aldrich, St. Louis, MO) density gradient centrifugation. Fibrocytes were cultivated as described (Bucala, R, et al., (1994) Mol Med 1, 71-81, incorporated herein by reference in its entirety) except that culture substrata remained uncoated with fibronectin, as previously described (Douglas, R. S., et al. (2010) The Journal of clinical endocrinology and metabolism 95, 430-438). Isolated PBMCs (1×10^6-1×107) were inoculated in six-well plates covered with DMEM containing 10% FBS and incubated in 10-14 days. Adherent monolayers (<5% of the starting population) were washed with PBS and detached using accutase (Millipore) treatment, or mechanical scraping following accutase treatment. Culture purity was routinely confirmed by FACS analysis to be >90% fibrocytes by confirming the CD31^−CD45^+CD34^+CXCR4^+Col I^+TSFR^high phenotype.
Invariably, a small population of tightly adherent T cells were found in the fibrocyte cultures, consistent with the previous findings. Culture viability was routinely verified to be >90%. CD4^+ T cells were enriched using the CD4 isolation cocktail (Cat #0.130-096-533, Miltenyi Biotec, San Diego, CA) followed by negative selection using a magnetic column (Cat #0.130-042-401) according to manufacturer's protocol. Fibrocytes and isolated T cells were cultured and remained untreated or were incubated with human IgG isotype control (5 μg/ml) or teprotumumab (50 μg/mL) for 7 to 9 days. Single cell suspensions were stained with anti-human CD4, CD3, CD34, MHC-2, CD80, CD86, and PD-L1 (BD Biosciences) for 30 min, rinsed and fixed with CytoPerm/CytoFix (BD). They were then stained with anti-human INFγ and IL-17A for 20 min, rinsed, and subjected to the flow cytometry analysis. Gated CD34^+CXCR4^+ fibrocytes and CD4^+CD3^+ T cells were analyzed using quadrant settings based on negative isotype staining.
In vitro studies of CD34^+ fibrocytes and T cells PBMC and GD-OF monolayers were treated in vitro with human IgG isotype control (5 μg/ml), teprotumumab (50 μg/mL), H7 (5 μg/mL), linsitinib (1 μM), bTSH (5 mIU/mL), M22 (1 μg/mL), or IGF-1 (10 nM) for the intervals indicted in the figure legends in a 37° C., 5% CO2, humidified incubator until confluent. Brefeldin A (0.66 μl/ml), (Golgi Stop™, BD Biosciences), phorbol 12-myristate 13-acetate (PMA) (50 ng/ml) and ionomycin (1 μg/mL) were added for 5 h. Cells were rinsed with flow cytometry buffer (1×PBS, 0.5% BSA, 0.1% sodium azide) and stained with the relevant monoclonal antibodies.
(§1) Real-time PCR Confluent fibrocyte and GD-OF cultures were incubated with bTSH (5 mIU/mL), teprotumumab (50 μg/mL) or linsitinib (1 μM) for the time intervals indicated, washed with PBS and RNA was extracted with the Aurum Total RNA Mini Kit (cat. #732-6820, Bio-Rad, Hercules, CA). Cellular RNA (2 μg) was reverse transcribed using QuantiTect Reverse Transcription kit (cat. #205314, Qiagen (Germantown, MD) and real-time PCR was performed using an Applied Biosystems instrument with QuantiTect SYBR Green PCR kit (cat. no. 204143; Qiagen, Frederick, MD). Primer sequences were as follows.

For experiment [2], the system named is fibrocytes. In words: IL-23p19 and IL-12p35 mRNA expression, real-time PCR. The settings on record: teprotumumab 50 μg/ml or linsitinib 1 μM, 7-9 d. As to the method: (§2) FIGS. 10A-10F are graphs showing the divergent effect of teprotumumab on bTSH induced IL-23p19 and IL-12p35 expression on fibrocytes and GD-OF. Rinsed fibrocyte and GD-OF monolayers were incubated with or without 50 μg/ml teprotumumab (FIGS. 10A and 10B) or 1 μM linsitinib (FIGS. 10C and 10D) and human Isotype IgG for 7-9 d, and bTSH (5 mIU/mL) was added for 6 h. Harvested RNA was reverse transcribed and isolated cDNA was subjected to quantitative real-time PCR for IL-23p19 and IL-12p35 mRNA levels. Values were normalized to their respective GAPDH levels and are expressed as the mean±SD of three independent determinations. Experiments were repeated three times. FIGS. 10E and 10F are graphs showing the levels of IL-23 protein when rinsed fibrocyte and GD-OF monolayers were incubated with or without 50 μg/ml teprotumumab. **, p<0.01; ***. P<0.001.
as §1
Background: In qPCR the cycle at which signal appears reflects the starting amount.

In experiment [3] the test system is GD-OF. Described as above. Particulars: teprotumumab 50 μg/ml or linsitinib 1 μM, 7-9 d. Here is the method:
as §2
FIGS. 15A-15C are dose-response curves of teprotumumab effects on IL-6 expression/induction by bTSH (FIG. 15A); HAS2 expression/induction by bTSH (FIG. 15B); IL-12p35 expression/induction by bTSH (FIG. 15C). Following indicated treatments, cellular RNA was harvest from rinsed GD-OF cell layers, reversed transcribed and subjected to real-time PCR. Values were normalized to their respective GAPDH levels.
Graves' disease-orbital fibroblast (GD-OF) preparation and cultivtion GD-OF were isolated from orbital adipose/connective tissues removed during surgical orbital decompression surgery, as described ((Smith, T. J., et al., (2002) The Journal of clinical endocrinology and metabolism 87, 385-392). While the fraction of CD34^+ OF comprising GD-OF strains vary somewhat, the ratios of CD34^+/CD34^− OF are usually 50:50 in the early passages utilized in these studies (passages 2-11). Pure CD34^+ OF and CD34^− OF subsets were generated by staining for 30 m at 4° C. with fluorescein isothiocyanate-conjugated […] CD34 or its isotype control followed by cytometric cell sorting using a FACSAria III (BD Biosciences) instrument. Cells were sorted under sterile conditions into either CD34^+ OF, and CD34 OF subsets which were then re-cultured and treated without or with bTSH (5 mU/mL) or the other test compounds, as indicated, for 6 hrs, as indicated.
as §1

Experiment [4] has as its system GD-OF. Nature of the experiment: HAS1 and HAS2 mRNA, real-time PCR. Particulars: teprotumumab 50 μg/ml or linsitinib 1 μM, 7-9 d. Here is the method:
(§3) FIGS. 13A-13B are graphs showing the effect of teprotumumab on bTSH induced hyaluronan (HA) production in GD-OF (FIG. 13A) and fibrocytes (FIG. 13B). GD-OF were treated with or without teprotumumab (50 μg/ml) or human Isotype IgG (5 μg/ml) for 7-9 d and stimulated with bTSH (5 mIU/mL) for graded intervals indicated along the abscissa for 0 to 96h. Media were collected and subjected to HA ELISA. Values were normalized to respective cell layer protein levels and expressed as the mean±SD of three independent determinations. Experiments were repeated three times. FIGS. 13C-13F are graphs showing the divergent pattern of hyaluronan synthase (HAS) isoenzyme induction by bTSH in fibrocytes versus GD-OF and effects of teprotumumab (FIGS. 13C and 13D) and linsitinib (FIGS. 13E and 13F). Confluent monolayers of GD-OF and fibrocytes remained untreated or received teprotumumab (50 μg/ml) or linsitinib (1 μM) and human Isotype IgG for 7-9 d. Some cultures were treated with bTSH (5 mIU/mL) for 6h. Cellular RNA was harvested mRNA was reverse transcribed, and cDNA subjected to quantitative real-time PCR for HAS1 and HAS2. Values were normalized to their respective GAPDH levels and are expressed as the mean±SD of three independent determinations. Experiments were repeated three times. *, P<0.05; **, p<0.01; ***. P<0.001.
as §1

The test system of experiment [5] is fibrocytes. Nature of the experiment: HAS1 and HAS2 mRNA, real-time PCR. The settings on record: teprotumumab 50 μg/ml or linsitinib 1 μM, 7-9 d. Here is the method:
as §3, §1

For “rhIGF-1: Recombinant Human IGF-1 (R & D systems)”, the “induction of MHC II, CD80, CD86, PD-L1 surface proteins by the agent itself” value in experiment [1] (M22 1 μg/mL (peak at 6 d), IGF-1 10 nM, compared with bTSH) is “considerably less robust”.

`COc1ccc(C2Nc3ccccc3C(=O)N2Cc2ccco2)cc1COc1c(C)cc(NC(C)=O)cc1C` (stereo not drawn) [ML224]: the “effect on MHC II, CD80, CD86, PD-L1 expression, teprotumumab compared with TSHR inhibitor ML224” value in experiment [1] (9 d, single agents and in combination) is on record as “effective”.

Take `C[C@]1(O)C[C@@H](c2nc(-c3ccc4ccc(-c5ccccc5)nc4c3)c3c(N)nccn32)C1` [linsitinib]: in experiment [1] (bTSH-treated fibrocytes), the “induction of MHC II, CD80, CD86, PD-L1 surface proteins” value is “blocked”. Besides, the “induction of MHC II, CD80, CD86, PD-L1 mRNA by bTSH and M22” value in experiment [1] (teprotumumab 50 μg/mL, 1H7 5 μg/mL, linsitinib 1 μM) is “blocked”. For the same compound, in experiment [2], the “IL-12p35 expression, basal and induction by bTSH” value is on record as “increasing”; the “IL-23p19 expression, basal and induction by bTSH” value is “decreasing”. For the same compound, in experiment [3], the “IL-12p35 expression, basal and induction by bTSH” value is reported as “increasing”; the “IL-23p19 expression, basal and induction by bTSH” value is given as “decreasing”. For the same compound, in experiment [4], the “HAS2 expression, single agent or in combination with bTSH” value was “nearly identical”; the “basal and bTSH-provoked expression of HAS1” value is on record as “nearly identical”. In addition, in experiment [5], the “HAS2 expression, single agent or in combination with bTSH” value is recorded as “nearly identical”; the “basal and bTSH-provoked expression of HAS1” value is “nearly identical”.
